One assay concerns HeLa cells. The experiment in a line: MMS potentiation assay (CellTiter Glo viability). It is filed as cell-based, human. Also noted: key: N.A., no activity observed; P, positive; I, inconclusive; N.T., not tested. The settings on record: for MMS Assay: potentiation of the genotoxic effect of methylmethane sulfonate. The procedure: HeLa cells were plated at 6000 cells/well in DMEM culture medium containing 10% FBS into white solid bottom 384-well cell culture plates. The plates were incubated at 37°C overnight for cell attachment, followed by media replacement. The fresh medium contained serial dilutions of compounds of interest in the presence (0.4 mM final) or absence of MMS. The plates were incubated for 24 h at 37°C. Cell viability was determined by luminescence detection after an addition of 15 µL of CellTiter Glo reagent (Promega, Madison, WI). Percent viability was calculated for each concentration of compound tested in duplicate by relating the corresponding luminescence to that of a negative DMSO vehicle control. MMS potentiation trends were defined as follows: negative (-), if cell viability in the compound-plus-MMS treatment was the same as that of the DMSO-plus-MMS control (overlapping dose-response curves); inconclusive (I), if the shift in the cell viability dose-response upon MMS inclusion relative to compound-alone was less than 30%; and positive (P), if the difference between the compound-plus-MMS and compound-alone curves was at least 30%, and maintained within at least a two-fold compound concentration span.
To examine the biological prospects of the top compounds, we tested their ability to inhibit APE1 DNA repair activity by assessing enhancement of MMS toxicity in mammalian cells. MMS creates methylated-base damage to genomic DNA, which, when excised by an alkylpurine DNA glycosylase, results in a high number of cytotoxic AP sites. We compared the viability of HeLa cells exposed to a dilution series of inhibitor alone to a combination of a fixed MMS concentration with the same dilution series of inhibitor by using a standard CellTiter Glo luminescence assay. This technique measures the number of viable cells in culture based on quantitation of the ATP present, which signals the presence of metabolically active cells. The assay was further optimized for 384-well plates, allowing a high-throughput testing of multiple hits at multiple concentrations, a scope of investigation previously impossible due to the very low throughput of the traditionally applied colony formation assay.
From the 223 compounds found positive in the gel-based APE1 assays, exclusion of the most promiscuous hits, that is, those that were both DNA binders and EndoIV-inhibitory, yielded a set of 170 compounds (Figure 3). This shortened group of hits was tested in the cell-based potentiation assay for their ability to dose-dependently enhance sensitivity of HeLa cells to the alkylating agent MMS.
In general terms: In ATP-based viability assays light output follows the ATP content of the culture.

The target of assay [1] is T1, APE1 (Homo sapiens, UniProt P27695).
T1 construct: made in house
The experiment in a line: Fluorogenic kinetic qHTS APE1 incision assay (primary screen and retest of cherrypicked samples).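 Further: purified APE1 cleaving a fluorophore/dark-quencher labelled 17-mer duplex DNA bearing a tetrahydrofuran AP site, fluorescence rise followed kinetically over the first 2 min, inhibition normalized to controls.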 It is filed as biochemical.
Procedure: All screening operations were performed on a fully integrated robotic system (Kalypsys, San Diego, CA) [28] with library plates screened proceeding from the lowest to the highest concentration to minimize compound carryover [26]. Vehicle-only plates, with DMSO being pin-transferred to the entire column 5–48 compound area, were included regularly throughout the screen in order to record any systematic shifts in assay signal. During the screen, reagent bottles were kept at 4°C and all liquid lines were covered with aluminum foil to minimize degradation.
Screening data were corrected and normalized, and concentration–effect relationships was derived using in-house developed algorithms [25].
To screen for inhibitors of APE1 incision activity, we employed a purified-enzyme biochemical assay with a model substrate featuring a red-shifted fluorescent reporter in combination with a dark non-emitting quencher. These moieties were incorporated as end labels onto a 17-mer double-stranded DNA fragment containing a centrally-located tetrahydrofuran AP site sugar mimetic, which serves as the APE1 cleavage site. Upon APE1-catalyzed strand scission immediately 5′ to the AP site analog, the shortened oligodeoxynucleotide carrying the fluorescent reporter spontaneously dissociates from the rest of the substrate, leading to an increase in fluorescence due to its spatial separation from the dark quencher (Figure 1A).
Using a high-speed whole-plate fluorescence imager, the assay data for the entire screen was conducted in kinetic mode, with the APE1 incision reaction being monitored over the initial linear time frame of 2 min (Figure 1B). Thus, any inhibition associated with each sample was computed from the alteration in fluorescence intensity over the time-course measurement period, after normalization against the appropriate controls (Figure 1B, inset).

The target in assay [2] is T1, APE1. The assay can be described thus: Fluorescence polarization (FP) displacement assay of APE1 binding to AP-DNA probe.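 Further: TAMRA 5′-labeled duplex DNA with THF abasic site (5 nM) and APE1 (20 nM), Mg2+-free buffer, 15 min at room temperature, inhibition seen as lowered polarization.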 To be noted: read-out: FP IC50.
Procedure: Double-stranded oligodeoxynucleotide containing tetrahydrofuran (THF) abasic site labeled with TAMRA at the 5′-end was used as the labeled binding probe. Inhibition of APE1 binding to labeled probe was detected by a decrease in the fluorescence polarization (FP) of the fluorophore. Briefly, 4 µL mixture of 20 nM APE1 and 5 nM probe contained in the enzymatic assay buffer from which Mg^2+ was omitted, was dispensed into 1536-well Greiner black solid bottom plates. Compounds (23 nL) were transferred via pintool, and after a 15-minute incubation at room temperature, fluorescence polarization was measured in a ViewLux High-throughput CCD imager (480 nm excitation and 540 nm emission) to determine the degree of probe displacement caused by the test compounds.
The target in another assay is T2, E. coli Endo IV (Escherichia coli, UniProt P0A6C1).
T2 construct: made in house
The assay can be described thus: E. coli Endo IV profiling counterscreen.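 Further: selectivity counterscreen of candidate APE1 inhibitors against the bacterial endonuclease Endo IV, run in the same assay format as the primary APE1 high-throughput screen.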 It is filed as biochemical. To be noted: read-out: EndoIV IC50. A general note: The purpose of a counterscreen is to sort out artefacts and off-target activity.

The target in assay [3] is double-stranded 17-mer DNA fragment. The experiment in a line: ThO (Thiazole Orange) DNA displacement assay.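 Further: miniaturized displacement of the intercalating dye from unlabeled duplex DNA, used to flag nonspecific DNA binders, chiefly intercalators, groove binders may be missed.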 The settings on record: read-out: ThO-DNA binding IC50. The format is binding.
For assay [4], the target named is T1, APE1. The assay can be described thus: Gel-based APE1 incision assay with fluorescence (TAMRA) detection. The format is biochemical.
Procedure: To test the compounds’ inhibitory activity after the primary screen, two assays designed to monitor the cleavage of substrate to product through electrophoretic separation were utilized. The radiotracer incision assay, utilizing a ^32P-labeled substrate, was performed essentially as described [21], [31], [32]. Incision reactions utilizing ^32P-labeled substrate were carried out for 5 min at 37°C. After the addition of an equal volume of stop buffer (0.05% bromophenol blue and xylene cyanol, 20 mM EDTA, 95% formamide), the substrate and product were separated on a standard polyacrylamide denaturing gel and quantified by PhosphorImager analysis [32]. […] APE1 cleavage of the substrate results in a 18-mer TAMRA-labeled fragment which was separated by a non-denaturing polyacrylamide gel electrophoresis and quantitated in a Gel Doc XR imaging system, BioRad (Hercules, CA). The advantage of this assay is that it can be used in a relatively high throughput mode with the inhibitors tested at a range of concentrations (0.17 µM to 125 µM was used here). APE1 (0.15 nM) was added to a reaction mixture of 20 µL containing assay buffer (40 mM HEPES pH 7.5, 50 mM NaCl, 1 mM MgCl2 and 2 mM DTT), and labeled ds DNA substrate (final 75 nM). The mixture was incubated at RT for 15 min, and the reaction was stopped by the addition 20 µL of 2X dye stop solution (10% glycerol, 20 mM EDTA and bromophenol blue). Then 10 µL of the mixture was resolved on 20% polyacrylamide gel in 1X Tris-borate EDTA running buffer at 250 V for 40 min.
To eliminate false positive hits, all 595 confirmed molecules were tested for their ability to inhibit APE1 incision activity using biochemical assays that involve electrophoretic separation of the substrate and cleavage product.
Assay [5] concerns the target T1, APE1. The experiment in a line: Gel-based radiotracer (32P) APE1 incision assay.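 Further: APE1 incision reactions ran 5 min at 37 °C, with cleaved product and intact substrate resolved electrophoretically.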 Set-up: concentration or dose not given beside the values. The settings on record: percent incision shown; entries 1-112. It is filed as biochemical.
[6] abbreviates: initial quantitative high-throughput screen, read-out: APE1 qHTS IC50.
[7] abbreviates: retest of cherrypicked sample, read-out: APE1 Retest IC50.
Where [8] appears, read: entries 113-223: fluorophore detection, estimated IC50, read-out: Gel-based electrophoretic separation assay with fluorophore detection, estimated IC50 (column headed Radiotracer Assay (%Activity)).
[9] abbreviates: estimated IC50, fluorophore detection, entries 113-223, read-out: F-PAGE Assay IC50.

Here are results for 18 compounds from article PMC3479139, “Diverse Small Molecule Inhibitors of Human Apurinic/Apyrimidinic Endonuclease APE1 Identified from a Screen of a Large Public Collection” (PLoS ONE, 2012).

T1 sequence (P27695 whole entry): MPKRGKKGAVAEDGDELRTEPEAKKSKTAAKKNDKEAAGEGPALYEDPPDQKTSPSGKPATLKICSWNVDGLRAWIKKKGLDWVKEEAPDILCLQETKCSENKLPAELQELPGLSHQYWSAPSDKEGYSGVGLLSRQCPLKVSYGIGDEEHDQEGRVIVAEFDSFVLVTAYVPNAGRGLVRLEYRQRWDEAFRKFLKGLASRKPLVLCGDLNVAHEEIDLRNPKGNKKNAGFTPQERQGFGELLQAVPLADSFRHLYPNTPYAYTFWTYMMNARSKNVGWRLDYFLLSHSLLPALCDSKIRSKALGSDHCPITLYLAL
Source text for E. coli Endo IV: In order to screen out nonselective compounds, such as non-specific DNA binders and inhibitors of related enzymes, we used a miniaturized ThO DNA displacement assay and a counterscreen against the bacterial endonuclease E. coli Endo IV, respectively, following the previously published protocols [21].
To probe the selectivity of the candidate APE1 inhibitors, we tested them against E. coli EndoIV [36], employing the same assay as used in the HTS.

Take `Cc1cccn2c(=O)c3cc(C(=O)NCc4ccco4)c(=N)n(C4CCCCC4)c3nc12` [MLS001217741]: the “MMS Assay: potentiation of the genotoxic effect of methylmethane sulfonate” value in the assay with HeLa cells is given as “P”. Moreover, the IC50 was 16.8 µM on APE1 [1] (setting [6]); 12.9 µM at APE1 [1] (setting [7]); greater than 57 µM on APE1 [2]; greater than 57 µM at E. coli Endo IV; greater than 57 µM in assay [3]; 22.4 µM at APE1 [4] (setting [8]).
With `CCc1cc(CNC(=O)c2ccc(OC3CCN(CCc4ccccc4)CC3)cc2)on1` [MLS001105846], the “MMS Assay” value with HeLa cells is reported as “P”. Besides, the IC50 at APE1 [1] (setting [6]) was 11.9 µM; at APE1 [1] (setting [7]), 6.5 µM; on APE1 [2], 32.4 µM; at E. coli Endo IV, greater than 57 µM; in assay [3] it was greater than 57 µM; at APE1 [4] (setting [9]) it was 4.5 µM.
As to `O=C1CC(=O)N(Cc2ccco2)C(=S)N1` [MLS000535286], the “MMS Assay” value with HeLa cells is recorded as “I”. The IC50 at APE1 [1] (setting [6]) was 11.2 µM; at APE1 [1] (setting [7]), 12.6 µM; at APE1 [2] it was greater than 57 µM; at E. coli Endo IV, greater than 57 µM; in assay [3], greater than 57 µM. The “Radiotracer Assay (%Activity)” value at APE1 [5] came to 28%.
`CC(C(=O)O)N1C(=O)/C(=C/C=C/c2ccco2)SC1=S` (stereo not drawn) [MLS000551724]: the “MMS Assay” value in the assay on HeLa cells is on record as “I”. In addition, the IC50 at APE1 [1] (setting [6]) is 2.8 µM; at APE1 [1] (setting [7]), 0.9 µM; at APE1 [2], 12.6 µM; on E. coli Endo IV it was greater than 57 µM; in assay [3] it was greater than 57 µM. Also, the “Radiotracer Assay (%Activity)” value on APE1 [5] was found to be 9%.
`O=C(O[C@@H]1OC2COC(=O)c3cc(O)c(O)c(O)c3-c3c(cc(O)c(O)c3O)C(=O)O[C@@H]([C@H]1O)[C@@H]2O)c1cc(O)c(O)c(O)c1` [MLS000563483]: the “MMS Assay” value in the assay on HeLa cells is “I”. For the same compound, the IC50 was 0.07 µM on APE1 [1] (setting [6]); 0.05 µM at APE1 [1] (setting [7]); greater than 57 µM on APE1 [2]; greater than 57 µM at E. coli Endo IV; greater than 57 µM in assay [3]. The “Radiotracer Assay (%Activity)” value on APE1 [5] is 16%.
As to `O=C(O)c1cccc(-n2cccc2/C=C/[N+](=O)[O-])c1` [MLS000778420], the “MMS Assay” value in the assay with HeLa cells was “P”. Further, the IC50 at APE1 [1] (setting [6]) was 3.9 µM; at APE1 [1] (setting [7]), 4.5 µM; at APE1 [2], greater than 57 µM; on E. coli Endo IV, greater than 57 µM; in assay [3], greater than 57 µM. Moreover, at APE1 [5], the “Radiotracer Assay (%Activity)” value is 46%.
Take `O=C1COc2ccc(C(=O)COC(=O)/C=C/c3ccc(Br)o3)cc2N1` [MLS001142042]: in the assay with HeLa cells, the “MMS Assay” value is on record as “I”. Further, the IC50 at APE1 [1] (setting [6]) was 4.7 µM; at APE1 [1] (setting [7]) it was 14.5 µM; on APE1 [2], greater than 57 µM; on E. coli Endo IV, greater than 57 µM; in assay [3], greater than 57 µM; on APE1 [4] (setting [9]), 2.2 µM.
For `Cn1cccc1/C=C1\C(=O)NC(=O)N(Cc2ccco2)C1=O` [MLS000677191], the “MMS Assay” value in the assay with HeLa cells is “I”. Besides, the IC50 was 14.1 µM at APE1 [1] (setting [6]); 4.5 µM on APE1 [1] (setting [7]); greater than 57 µM at APE1 [2]; greater than 57 µM at E. coli Endo IV; greater than 57 µM in assay [3]. For the same compound, the “Radiotracer Assay (%Activity)” value on APE1 [5] came out at 5%.
Consider `N#C/C(=C\c1ccc(O)c(O)c1)C(=O)Nc1cccc2ncccc12` [MLS001173932], for which, in the assay on HeLa cells, the “MMS Assay” value is given as “I”. Further, the IC50 on APE1 [1] (setting [6]) was 3 µM; at APE1 [1] (setting [7]), 5.1 µM; on APE1 [2] it was greater than 57 µM; on E. coli Endo IV, greater than 57 µM; in assay [3] it was 2 µM; at APE1 [4] (setting [9]) it was 0.6 µM.
For `COc1ccc2c(c1)c(=O)oc1cc(OCC(=O)N3CCC(C)CC3)ccc12` [MLS000088142], in the assay with HeLa cells, the “MMS Assay” value is given as “I”. Further, the IC50 at APE1 [1] (setting [6]) is 15.6 µM; on APE1 [1] (setting [7]), 5 µM; at APE1 [2], 14.1 µM; at E. coli Endo IV, greater than 57 µM; in assay [3], greater than 57 µM. Also, at APE1 [5], the “Radiotracer Assay (%Activity)” value was 29%.
As for `O=C1/C(=C/C=C/c2ccco2)SC(=S)N1NS(=O)(=O)c1ccccc1` [MLS000778639], the “MMS Assay” value with HeLa cells was “I”. Further, the IC50 on APE1 [1] (setting [6]) is 2.5 µM; at APE1 [1] (setting [7]) it was 3.5 µM; on APE1 [2], greater than 57 µM; on E. coli Endo IV, greater than 57 µM; in assay [3], greater than 57 µM. Further, the “Radiotracer Assay (%Activity)” value at APE1 [5] amounted to 6%.
For the compound `COc1ccc(CCn2c(O)cc3nn(-c4nc5ccccc5s4)c(=O)c-3c2C)cc1` [MLS000763226], the “MMS Assay” value in the assay on HeLa cells is given as “I”. Besides, the IC50 on APE1 [1] (setting [6]) was 31.6 µM; on APE1 [1] (setting [7]) it was 15.8 µM; at APE1 [2], greater than 57 µM; at E. coli Endo IV, greater than 57 µM; in assay [3], 10 µM. The “Radiotracer Assay (%Activity)” value at APE1 [5] turned out to be 20%.
`CC1CCc2c(sc(NC(=O)/C=C/c3cccs3)c2C(=O)O)C1` (stereo not drawn) [MLS000974674]: in the assay with HeLa cells, the “MMS Assay” value is listed as “P”. Further, the IC50 at APE1 [1] (setting [6]) is 11.9 µM; on APE1 [1] (setting [7]), 45.7 µM; on APE1 [2], greater than 57 µM; at E. coli Endo IV it was greater than 57 µM; in assay [3] it was 36.3 µM; at APE1 [4] (setting [9]) it was 6.3 µM.
Take `COc1ccc(C(=O)Nc2ccnn2C2CCN(Cc3ccc4nonc4c3)CC2)cc1` [MLS001090278]: the “MMS Assay: potentiation of the genotoxic effect of methylmethane sulfonate” value in the assay on HeLa cells was “I”. Besides, the IC50 at APE1 [1] (setting [6]) was 5.3 µM; at APE1 [1] (setting [7]), 10.2 µM; on APE1 [2] it was greater than 57 µM; at E. coli Endo IV, greater than 57 µM; in assay [3] it was greater than 57 µM; on APE1 [4] (setting [8]), 10 µM.
Take `COc1c(-c2ccc(O)cc2)oc2cc(O)cc(O)c2c1=O` [MLS000877008]: the “MMS Assay” value in the assay on HeLa cells is “I”. The IC50 at APE1 [1] (setting [6]) is 1.1 µM; at APE1 [1] (setting [7]), 2.8 µM; at APE1 [2] it was greater than 57 µM; on E. coli Endo IV, greater than 57 µM; in assay [3], greater than 57 µM. Also, the “Radiotracer Assay (%Activity)” value on APE1 [5] is 43%.
Take `CC(=O)Oc1cc(C(=O)OCC(=O)N2CCc3ccccc3C2)cc(OC(C)=O)c1OC(C)=O` [MLS002252117]: the “MMS Assay” value in the assay on HeLa cells is given as “I”. Also, the IC50 was 5.3 µM on APE1 [1] (setting [6]); 11.5 µM at APE1 [1] (setting [7]); greater than 57 µM on APE1 [2]; greater than 57 µM at E. coli Endo IV; greater than 57 µM in assay [3]; 4.5 µM on APE1 [4] (setting [9]).
As for `O=C(O)C1Nc2ccc(Br)cc2C2C=CCC12` (stereo not drawn) [MLS001209038], the “MMS Assay” value in the assay with HeLa cells was “I”. The IC50 at APE1 [1] (setting [6]) was 13.4 µM; at APE1 [1] (setting [7]), 18.2 µM; at APE1 [2], greater than 57 µM; on E. coli Endo IV, greater than 57 µM; in assay [3] it was 25.7 µM; at APE1 [4] (setting [9]) it was 6.3 µM.
As for `O=C(O)c1ccccc1-c1ccc(/C=c2\sc3nc4cc(Br)cnc4n3c2=O)o1` [MLS000107874], the “MMS Assay” value in the assay on HeLa cells was “I”. The IC50 was 22.4 µM on APE1 [1] (setting [6]); 8.9 µM on APE1 [1] (setting [7]); 17.8 µM on APE1 [2]; greater than 57 µM at E. coli Endo IV; greater than 57 µM in assay [3]. For the same compound, the “Radiotracer Assay (%Activity)” value on APE1 [5] is 11%.
